Experimental data published in ChEMBL document CHEMBL1201862, “PubChem BioAssay data set” (2004).
Active and inactive are the calls of the source.

Tests used:
Hexokinase HKDC1 = target: T1, Hexokinase HKDC1 (Homo sapiens, UniProt Q2TB90); experiment: HKDC1 hexokinase activators, dose response, biochemical, W721R variant (AID 504730); type: functional
T1 sequence (Q2TB90 whole entry): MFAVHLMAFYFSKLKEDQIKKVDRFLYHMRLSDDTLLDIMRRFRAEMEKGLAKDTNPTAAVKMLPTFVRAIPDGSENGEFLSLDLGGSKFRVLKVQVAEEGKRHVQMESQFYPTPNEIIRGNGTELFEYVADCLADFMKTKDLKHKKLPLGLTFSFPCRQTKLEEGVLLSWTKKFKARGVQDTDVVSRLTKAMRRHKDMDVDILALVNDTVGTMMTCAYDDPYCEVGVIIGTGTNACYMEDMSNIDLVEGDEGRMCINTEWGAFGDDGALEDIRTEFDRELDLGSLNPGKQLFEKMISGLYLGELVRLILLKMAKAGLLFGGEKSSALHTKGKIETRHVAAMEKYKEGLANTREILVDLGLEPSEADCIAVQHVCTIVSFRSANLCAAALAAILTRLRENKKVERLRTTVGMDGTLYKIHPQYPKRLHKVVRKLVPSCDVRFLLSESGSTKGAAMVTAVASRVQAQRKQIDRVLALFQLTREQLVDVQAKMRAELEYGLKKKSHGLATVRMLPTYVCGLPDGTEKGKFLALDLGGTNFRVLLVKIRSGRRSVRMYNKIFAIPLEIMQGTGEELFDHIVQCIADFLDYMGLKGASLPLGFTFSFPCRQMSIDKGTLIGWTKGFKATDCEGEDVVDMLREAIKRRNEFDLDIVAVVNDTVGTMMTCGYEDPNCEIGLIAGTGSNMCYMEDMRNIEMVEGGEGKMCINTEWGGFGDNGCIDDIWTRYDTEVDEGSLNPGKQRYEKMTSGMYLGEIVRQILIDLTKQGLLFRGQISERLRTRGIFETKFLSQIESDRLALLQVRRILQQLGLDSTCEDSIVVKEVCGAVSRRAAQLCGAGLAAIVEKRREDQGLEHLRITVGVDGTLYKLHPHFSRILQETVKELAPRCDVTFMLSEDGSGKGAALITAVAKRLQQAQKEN

Hexokinase-1 = target: T2, Hexokinase-1 (Homo sapiens, UniProt P19367); experiment: hexokinase 1 activators, dose response, selectivity assay for HKDC1 activator project, biochemical (AID 504762); type: functional
T2 sequence (P19367 whole entry): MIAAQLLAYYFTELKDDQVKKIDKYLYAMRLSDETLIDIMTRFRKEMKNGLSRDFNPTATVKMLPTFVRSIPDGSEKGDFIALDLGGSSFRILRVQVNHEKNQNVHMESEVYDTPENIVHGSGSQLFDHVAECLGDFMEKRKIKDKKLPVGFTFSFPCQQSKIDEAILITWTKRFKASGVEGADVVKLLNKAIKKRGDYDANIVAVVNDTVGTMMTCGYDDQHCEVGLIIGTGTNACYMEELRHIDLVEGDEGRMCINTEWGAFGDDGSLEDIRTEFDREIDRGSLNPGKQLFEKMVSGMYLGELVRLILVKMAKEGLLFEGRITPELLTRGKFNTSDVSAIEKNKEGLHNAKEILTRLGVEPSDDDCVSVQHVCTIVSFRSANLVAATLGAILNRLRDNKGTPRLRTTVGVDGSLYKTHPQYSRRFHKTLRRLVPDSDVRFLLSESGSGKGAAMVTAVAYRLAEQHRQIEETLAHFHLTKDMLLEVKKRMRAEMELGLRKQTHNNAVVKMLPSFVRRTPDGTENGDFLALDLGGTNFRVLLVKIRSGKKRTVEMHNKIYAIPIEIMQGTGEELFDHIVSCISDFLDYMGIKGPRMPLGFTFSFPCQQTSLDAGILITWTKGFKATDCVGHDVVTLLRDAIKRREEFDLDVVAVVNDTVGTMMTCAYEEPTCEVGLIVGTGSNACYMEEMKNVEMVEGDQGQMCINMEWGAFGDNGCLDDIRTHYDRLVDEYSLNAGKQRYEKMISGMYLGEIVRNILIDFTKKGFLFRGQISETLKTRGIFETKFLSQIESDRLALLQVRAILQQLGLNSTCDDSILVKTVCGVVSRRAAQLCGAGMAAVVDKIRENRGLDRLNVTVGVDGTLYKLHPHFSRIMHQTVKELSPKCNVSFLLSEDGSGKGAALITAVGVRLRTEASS

Cannabinoid receptor 2 [1] = target: T3, Cannabinoid receptor 2 (Homo sapiens, UniProt P34972); experiment: SAR analysis of agonists of the Cannabinoid Receptor 2 using an Image-Based Assay - Set 3. [Related pubchem assays (depositor defined):AID2013, AID2026]; type: functional
T3 sequence (P34972 whole entry): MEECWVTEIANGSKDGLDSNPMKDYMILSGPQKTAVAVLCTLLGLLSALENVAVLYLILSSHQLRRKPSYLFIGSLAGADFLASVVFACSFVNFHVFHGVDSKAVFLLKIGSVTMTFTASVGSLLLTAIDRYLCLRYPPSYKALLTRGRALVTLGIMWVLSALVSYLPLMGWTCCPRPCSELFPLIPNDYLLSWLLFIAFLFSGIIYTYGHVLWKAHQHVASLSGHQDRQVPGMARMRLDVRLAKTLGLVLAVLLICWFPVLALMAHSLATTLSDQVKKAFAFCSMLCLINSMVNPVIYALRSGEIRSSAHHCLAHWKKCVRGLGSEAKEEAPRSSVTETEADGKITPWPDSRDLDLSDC

Cannabinoid receptor 1 [2] = target: T4, Cannabinoid receptor 1 (Homo sapiens, UniProt P21554); experiment: SAR analysis of antagonists of the Cannabinoid Receptor 1 using an Image-Based Assay - Set 4. [Related pubchem assays (depositor defined):AID2013, AID2026]; type: functional
T4 sequence (P21554 whole entry): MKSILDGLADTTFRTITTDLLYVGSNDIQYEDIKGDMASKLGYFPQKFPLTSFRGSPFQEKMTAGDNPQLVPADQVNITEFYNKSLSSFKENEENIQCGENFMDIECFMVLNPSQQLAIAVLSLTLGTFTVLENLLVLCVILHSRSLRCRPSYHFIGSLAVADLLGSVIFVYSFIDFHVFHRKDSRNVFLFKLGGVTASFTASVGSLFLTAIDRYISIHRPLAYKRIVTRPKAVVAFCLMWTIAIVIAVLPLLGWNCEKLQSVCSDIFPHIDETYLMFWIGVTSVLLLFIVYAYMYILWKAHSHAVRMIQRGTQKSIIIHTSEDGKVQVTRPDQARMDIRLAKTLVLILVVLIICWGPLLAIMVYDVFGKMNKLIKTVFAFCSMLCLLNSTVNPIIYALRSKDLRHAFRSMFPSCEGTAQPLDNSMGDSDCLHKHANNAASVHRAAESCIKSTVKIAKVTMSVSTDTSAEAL

Cannabinoid receptor 1 [3] = target: T4, Cannabinoid receptor 1; experiment: SAR analysis of agonists of the Cannabinoid Receptor 1 using an Image-Based Assay - Set 4. [Related pubchem assays (depositor defined):AID2013, AID2026]; type: functional
[4] = target: G-protein coupled receptor 55 (Homo sapiens, UniProt Q9Y2T6); experiment: SAR Analysis of Selective Antagonists of GPR55 using an Image-Based Assay - Set 4. [Related pubchem assays (depositor defined):AID2013, AID2026]; type: functional;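 also: antagonism of response to 5 µM lysophosphatidylinositol agonist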
Sequence of G-protein coupled receptor 55 (Q9Y2T6 whole entry): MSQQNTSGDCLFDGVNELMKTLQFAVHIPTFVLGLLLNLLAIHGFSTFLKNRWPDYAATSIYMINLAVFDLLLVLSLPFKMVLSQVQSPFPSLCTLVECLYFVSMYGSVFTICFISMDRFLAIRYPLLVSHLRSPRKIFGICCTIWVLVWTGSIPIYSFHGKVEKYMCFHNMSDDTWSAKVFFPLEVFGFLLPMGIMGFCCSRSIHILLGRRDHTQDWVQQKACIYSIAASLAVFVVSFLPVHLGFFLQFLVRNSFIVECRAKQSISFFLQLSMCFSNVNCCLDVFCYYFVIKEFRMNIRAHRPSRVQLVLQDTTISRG

[5] = target: T5, G-protein coupled receptor 35 (Homo sapiens, UniProt Q9HC97); experiment: SAR analysis of Antagonists of the GPR35 Receptor using an Image-Based Assay - Set 6. [Related pubchem assays (depositor defined):AID2013, AID2026]; type: functional
T5 sequence (Q9HC97 whole entry): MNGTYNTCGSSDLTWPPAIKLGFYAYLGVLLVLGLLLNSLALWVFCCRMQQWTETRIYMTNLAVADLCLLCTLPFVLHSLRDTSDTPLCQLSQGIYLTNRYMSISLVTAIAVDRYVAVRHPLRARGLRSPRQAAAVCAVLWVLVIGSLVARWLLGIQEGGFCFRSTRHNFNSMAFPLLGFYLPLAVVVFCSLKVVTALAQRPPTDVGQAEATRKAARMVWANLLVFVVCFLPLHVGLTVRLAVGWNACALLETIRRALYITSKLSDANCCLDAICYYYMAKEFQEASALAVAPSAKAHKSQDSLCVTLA

[6] = target: T5, G-protein coupled receptor 35; experiment: SAR analysis of Agonists of the GPR35 Receptor using an Image-Based Assay - Set 4. [Related pubchem assays (depositor defined):AID2013, AID2026]; type: functional
Cannabinoid receptor 2 [7] = target: T3, Cannabinoid receptor 2; experiment: SAR analysis of antagonists of the Cannabinoid Receptor 2 using an Image-Based Assay - Set 3. [Related pubchem assays (depositor defined):AID2013, AID2026]; type: functional
CAAX prenyl protease 1 = CAAX prenyl protease 1 (Saccharomyces cerevisiae S288c, UniProt P47154); experiment: Ste24 protease inhibitors, dose response, biochemical, S. cerevisiae, plate reader, cherry-pick (AID 488815)
Sequence of CAAX prenyl protease 1 (P47154 whole entry): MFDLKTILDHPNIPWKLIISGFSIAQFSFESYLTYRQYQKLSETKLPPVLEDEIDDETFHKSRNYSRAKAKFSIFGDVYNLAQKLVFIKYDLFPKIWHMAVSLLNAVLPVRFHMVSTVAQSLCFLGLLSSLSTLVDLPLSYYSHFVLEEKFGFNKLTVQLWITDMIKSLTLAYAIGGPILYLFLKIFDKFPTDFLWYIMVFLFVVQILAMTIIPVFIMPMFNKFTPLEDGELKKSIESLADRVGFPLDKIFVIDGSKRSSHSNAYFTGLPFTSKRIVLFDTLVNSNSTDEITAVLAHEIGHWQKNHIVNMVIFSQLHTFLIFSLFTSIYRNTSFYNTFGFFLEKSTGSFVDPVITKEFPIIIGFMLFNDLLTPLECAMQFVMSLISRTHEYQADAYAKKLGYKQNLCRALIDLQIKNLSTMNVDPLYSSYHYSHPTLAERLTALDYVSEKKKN

CAAX prenyl protease 2 = target: T6, CAAX prenyl protease 2 (Saccharomyces cerevisiae S288c, UniProt Q03530); type: biochemical
T6 sequence (Q03530 whole entry): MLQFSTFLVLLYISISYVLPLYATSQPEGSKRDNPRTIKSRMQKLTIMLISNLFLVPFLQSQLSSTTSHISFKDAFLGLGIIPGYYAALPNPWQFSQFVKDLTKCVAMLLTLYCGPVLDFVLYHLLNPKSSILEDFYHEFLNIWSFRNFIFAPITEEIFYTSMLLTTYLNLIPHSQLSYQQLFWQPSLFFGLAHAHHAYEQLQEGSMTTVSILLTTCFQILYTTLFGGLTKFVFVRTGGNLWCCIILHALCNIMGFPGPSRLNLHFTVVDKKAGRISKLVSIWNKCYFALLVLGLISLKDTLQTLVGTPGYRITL

HEK293 [8] = experiment: NOD2 signaling inhibitors in MDP-stimulated cells, cell-based, uHTS, luminescence (AID 2001); type: functional; settings: Homo sapiens
[9] = microbe, parasite or virus in culture; type: functional; settings: Mycobacterium tuberculosis
HEK293 [10] = experiment: NOD1 signaling inhibitors, primary screen, cell-based, luminescence, uHTS (AID 1578); type: functional; settings: Homo sapiens
HEK293 [11] = experiment: cells; type: functional, cell-based; settings: Homo sapiens
HEK293 [12] = experiment: cells; type: functional, cell-based; settings: Homo sapiens; remark: listed apart in the source
[13] = tested on: Streptococcus sp. 'group A'; experiment: growth inhibition of control SK(-) GAS strain, dose response, counter-screen for streptokinase expression inhibitor project, luminescence, kanamycin, BacTiterGlo, confirmation (AID 1900); type: functional, organism-based
HEK293 [14] = experiment: cells; type: functional, cell-based; settings: Homo sapiens; remark: listed apart in the source
[15] = target: Nucleotide-binding oligomerization domain-containing protein 2 (Homo sapiens, UniProt Q9HC29); experiment: NOD2 signaling inhibitors, cell-based, luminescence, uHTS, HEK293 (AID 1566); type: functional
Sequence of Nucleotide-binding oligomerization domain-containing protein 2 (Q9HC29 whole entry, the tested form may be a part): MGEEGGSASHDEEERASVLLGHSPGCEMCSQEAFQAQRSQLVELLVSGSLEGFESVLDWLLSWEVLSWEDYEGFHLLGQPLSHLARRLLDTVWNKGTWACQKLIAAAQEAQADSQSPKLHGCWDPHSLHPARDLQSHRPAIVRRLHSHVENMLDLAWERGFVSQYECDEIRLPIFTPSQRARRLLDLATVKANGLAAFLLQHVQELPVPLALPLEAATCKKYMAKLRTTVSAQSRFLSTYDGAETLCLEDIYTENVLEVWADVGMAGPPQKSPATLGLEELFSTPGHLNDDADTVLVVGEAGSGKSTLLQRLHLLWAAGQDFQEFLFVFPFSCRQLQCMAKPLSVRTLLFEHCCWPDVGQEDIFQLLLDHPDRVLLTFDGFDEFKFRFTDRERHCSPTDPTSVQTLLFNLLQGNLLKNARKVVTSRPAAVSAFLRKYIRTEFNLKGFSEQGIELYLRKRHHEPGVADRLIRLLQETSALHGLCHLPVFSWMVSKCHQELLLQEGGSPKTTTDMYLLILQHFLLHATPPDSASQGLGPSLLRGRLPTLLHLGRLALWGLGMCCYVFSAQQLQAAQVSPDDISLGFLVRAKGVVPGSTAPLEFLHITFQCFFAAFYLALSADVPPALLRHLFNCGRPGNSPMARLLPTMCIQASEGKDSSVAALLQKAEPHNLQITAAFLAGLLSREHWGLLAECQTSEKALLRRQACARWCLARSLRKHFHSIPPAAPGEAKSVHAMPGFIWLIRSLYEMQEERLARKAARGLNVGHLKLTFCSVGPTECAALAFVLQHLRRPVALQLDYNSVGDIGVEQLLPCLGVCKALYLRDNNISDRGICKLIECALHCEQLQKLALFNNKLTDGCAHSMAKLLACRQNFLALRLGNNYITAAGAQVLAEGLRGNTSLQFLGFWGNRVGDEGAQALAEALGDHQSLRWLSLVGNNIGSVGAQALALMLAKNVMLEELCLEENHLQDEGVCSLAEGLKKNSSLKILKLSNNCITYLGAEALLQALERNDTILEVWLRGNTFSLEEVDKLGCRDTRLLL

Streptococcus = experiment: Group A Streptococcus viability loss, dose response, counter-screen for streptokinase expression inhibitor project, luminescence, BacTiterGlo (AID 1915); type: functional, organism-based;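 also: potency for reduction of bacterial viability or growth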
[16] = target: Runt-related transcription factor 1/Core-binding factor subunit beta (Homo sapiens, UniProt Q01196+Q13951); experiment: Confirmation of compounds inhibiting the binding between the RUNX1 Runt domain and CBFb-SMMHC via a fluorescence resonance energy transfer (FRET) assay. [Related pubchem assays (depositor defined):AID1434, AID1438, AID1496, AID1550, AID1645]; type: protein assay
Sequence of Runt-related transcription factor 1/Core-binding factor subunit beta (Q01196 whole entry, the tested form may be a part): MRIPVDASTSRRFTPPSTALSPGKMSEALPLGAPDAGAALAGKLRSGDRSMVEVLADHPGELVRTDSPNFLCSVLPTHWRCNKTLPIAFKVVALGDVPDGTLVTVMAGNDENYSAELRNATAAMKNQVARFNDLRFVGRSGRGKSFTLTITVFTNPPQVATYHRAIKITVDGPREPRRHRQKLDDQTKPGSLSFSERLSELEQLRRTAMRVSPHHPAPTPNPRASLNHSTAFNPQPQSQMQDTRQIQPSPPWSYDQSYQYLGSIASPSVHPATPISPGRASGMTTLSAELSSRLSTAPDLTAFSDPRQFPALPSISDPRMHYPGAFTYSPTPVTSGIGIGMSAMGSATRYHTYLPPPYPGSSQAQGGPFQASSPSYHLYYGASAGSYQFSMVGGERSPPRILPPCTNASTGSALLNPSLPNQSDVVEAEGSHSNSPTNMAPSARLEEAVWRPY
Sequence of Runt-related transcription factor 1/Core-binding factor subunit beta (Q13951 whole entry, the tested form may be a part): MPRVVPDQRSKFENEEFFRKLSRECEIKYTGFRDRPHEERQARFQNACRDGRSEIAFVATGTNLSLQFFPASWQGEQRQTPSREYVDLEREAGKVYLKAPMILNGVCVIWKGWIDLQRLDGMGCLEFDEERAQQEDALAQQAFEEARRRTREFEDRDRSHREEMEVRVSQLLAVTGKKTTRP

Cc1ccc2oc(=O)c3cnn(CC(=O)N4CCCCCC4)c3c2c1
inactive: EC50 (Hexokinase HKDC1) 34.1 µM | EC50 (Hexokinase-1) 21.7 µM

Cc1noc(NS(=O)(=O)c2ccc(NC(=O)c3cc(-c4ccccc4Cl)nc4ccccc34)cc2)c1C
inactive: EC50 (Cannabinoid receptor 2 [1]) > 32 µM | IC50 (Cannabinoid receptor 1 [2]) 18.8 µM | EC50 (Cannabinoid receptor 1 [3]) > 32 µM | IC50 [5] > 32 µM | EC50 [6] > 32 µM | IC50 (Cannabinoid receptor 2 [7]) > 32 µM
active: IC50 [4] 4.63 µM

NC(=O)CSC1=Nc2ccccc2C2=NC(c3ccccc3)C(=O)N12 (stereo unspecified)
active: AC50 (CAAX prenyl protease 1) 5.41 µM | AC50 (CAAX prenyl protease 2) 4.61 µM

Nc1nn2c(O)cc(-c3ccccc3)nc2c1N=Nc1ccc2c(c1)OCO2
inactive: IC50 (HEK293 [8]) 14.5 µM | IC50 (HEK293 [11]) > 20 µM | IC50 (HEK293 [12]) > 20 µM | EC50 [15] > 20 µM
active: CC50 [9] 29.9 µM | EC50 (HEK293 [10]) 18.4 µM | EC50 [13] 2.16 µM | IC50 (HEK293 [14]) 19 µM | EC50 (Streptococcus) 3.77 µM

O=S(=O)(Nc1ccc(-c2nc3cccnc3s2)cc1)c1ccccc1F
inactive: IC50 [16] > 50 µM
